In brackets after ≈: the same amount, converted by molar mass. Several values for one entry are separate records, joined by “and”; a condition that tells them apart may be missing. Equal entries are not always repeated. Where two headings read alike, the source gives them in different places.
Assays:
[1] = test system: MN9D cells; assay: Protection against MPP+-induced toxicity in MN9D cells (MTT reduction, LDH release); conditions: for protective effect against MPP+-induced toxicity under Nurr1 overexpression (OE): CQ 100 μM, SPV-94 1 μM, vs Mock
Procedure: (§2) Cell viability and cytotoxicity were measured by MTT (3-(4,5-dimethylthiazol-2-yl)-2,5-diphenyltetrazolium bromide) reduction assay.
(§3) Cell viability and cytotoxicity were measured by lactate dehydrogenase (LDH) release assay.

[2] = test system: MPTP-induced PD model mice; assay: Sub-chronic MPTP-induced mice model of PD; conditions: for body weight recovery / cylinder test, rearing numbers, sub-chronic treatment / pole test, time to traverse, sub-chronic treatment / rotarod latency to fall, sub-chronic treatment: L-DOPA 50, CQ 40, SPV-94 5 mg/kg/day; for TH+ DAergic neurons (counting and densitometry): SNpc and OB; for olfactory discrimination test (olfaction), chronic treatment: day 14; for rotarod latency to fall, chronic treatment: day 15
Procedure: (§4) Sub-chronic MPTP regimen (30 mg/kg/day, 5 days) was introduced.

[3] = test system: mouse bone marrow-derived primary macrophages (mBMMs); assay: LPS- or poly(I:C)-induced pro-inflammatory gene expression in mBMMs; format: cell-based; conditions: CQ 10 μM, SPV-94 1 μM
Excerpt: (§1) Besides the role as an activator of DAergic genes, Nurr1 is known as a repressor of inflammatory genes in astrocytes and microglia (See Saijo et al., Cell 2009, 137, 47-59).

[4] = test system: Nurr1-LBD and full-length Nurr1; assay: Luciferase activity assay (Nurr1 transactivation) in N27-A cells; format: cell-based, murine
[5] = target: T1, full-length Nurr1 (Homo sapiens, UniProt P43354); assay: Luciferase activity assay (p4xNL3-Luc reporter) with full-length Nurr1 in SK-N-BE(2)C cells; format: cell-based; conditions: for EC50: read-out: EC50, transcriptional activity of full-length Nurr1
T1 construct: expressed in transfected cells; host or cells: SK-N-BE(2)C human neuroblastoma cells
T1 sequence (P43354 whole entry): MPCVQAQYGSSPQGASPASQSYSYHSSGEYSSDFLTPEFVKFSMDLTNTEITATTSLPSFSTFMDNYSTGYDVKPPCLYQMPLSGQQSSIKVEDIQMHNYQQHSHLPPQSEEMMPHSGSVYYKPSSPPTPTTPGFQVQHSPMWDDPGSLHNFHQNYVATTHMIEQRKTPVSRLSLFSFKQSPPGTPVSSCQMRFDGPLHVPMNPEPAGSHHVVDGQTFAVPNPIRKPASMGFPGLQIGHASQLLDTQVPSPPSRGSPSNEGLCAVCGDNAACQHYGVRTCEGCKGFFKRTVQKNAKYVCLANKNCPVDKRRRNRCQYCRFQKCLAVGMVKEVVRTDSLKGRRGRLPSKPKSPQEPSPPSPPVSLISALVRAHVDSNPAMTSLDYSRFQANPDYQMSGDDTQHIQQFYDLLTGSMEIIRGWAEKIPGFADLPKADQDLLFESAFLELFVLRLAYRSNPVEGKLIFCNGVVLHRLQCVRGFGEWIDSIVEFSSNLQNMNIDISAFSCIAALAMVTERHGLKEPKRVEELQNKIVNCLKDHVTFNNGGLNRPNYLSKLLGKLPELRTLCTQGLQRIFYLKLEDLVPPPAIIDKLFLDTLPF

[6] = test system: HeLa cells; assay: Starvation-induced autophagy in HeLa cells (Western blot of LC3B and p62); format: cell-based; conditions: EBSS 0-4 hrs, BafA1 10 nM, CQ 20 μM, SPV-94 1 μM
Procedure: To limit basal autophagy, cells were incubated in fresh growth medium for 1 hr before starvation. Samples were analyzed by Western blot using autophagic flux markers LC3B and p62 (A) and its expression levels were quantified (10B and 10C).

[7] = test system: N27-A cells; assay: Starvation-induced autophagy and Nurr1 expression in N27-A cells with or without MPP+; format: cell-based
Procedure: LC3B, p62 and Nurr1 expression levels determined by Western blot (D) were quantified.
Next, autophagy regulation was assessed in a dopaminergic cell line N27-A in the absence or presence of MPP^+ (1 mM). […] Furthermore, it was observed that MPP disrupted autophagy showing accumulated LC3B-II and remained p62 at the late-stage, which corresponds to the previous studies (See Lim et al., Autophagy 2011, 7, 51-60; Hung et al., PLoS ONE 2014, 9, e91074; Park et al., J Biol Chem 2016, 291, 3531-3540).
Referring to FIGS. 10D-10G, N27-A cells were treated with vehicle or MPP+ (1 mM) for 24 hrs and then changed with fresh growth medium with or without MPP+ 1 hr before starvation. […] To induce autophagy, N27-A cells were incubated in EBSS for 0-4 hrs, in the absence or presence of MPP+. Samples were analyzed by Western blot using autophagic flux markers LC3B and p62 (D) and its expression levels were quantified (10E and 10F). […] (10G) Nurr1 expression level changes were also analyzed and quantified.

[8] = target: T2, Nurr1-LBD (Homo sapiens, UniProt P43354); assay: Luciferase activity assay (p4xNL3-Luc reporter) with Nurr1-LBD in SK-N-BE(2)C cells; format: cell-based; design: expressed in transfected cells; host or cells: SK-N-BE(2)C human neuroblastoma cells; conditions: for EC50: read-out: EC50, transcriptional activity of Nurr1-LBD
T2 sequence (P43354 360-595 limits assumed): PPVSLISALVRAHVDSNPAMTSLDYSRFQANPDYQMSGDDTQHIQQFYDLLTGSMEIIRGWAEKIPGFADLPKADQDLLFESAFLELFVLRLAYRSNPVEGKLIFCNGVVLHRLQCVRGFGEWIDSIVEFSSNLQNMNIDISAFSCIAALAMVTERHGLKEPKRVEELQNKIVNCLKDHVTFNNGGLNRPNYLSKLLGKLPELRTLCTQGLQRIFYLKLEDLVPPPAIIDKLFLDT

[9] = target: T2, Nurr1-LBD; assay: Radioligand competition binding assay using [3H]-CQ; conditions: for IC50: 1,000 nM [3H]-CQ, 0.2 μM Nurr1-LBD, estimated, read-out: half maximal inhibitory concentration (IC50), competition with [3H]-CQ for binding to Nurr1-LBD
[10] = test system: N27-A cells; assay: Protection against MPP+-induced toxicity in N27-A cells (MTT, LDH); conditions: 1 mM MPP+
[11] = test system: BV2 cells; assay: LPS-induced TNFα mRNA expression in BV2 cells (real-time PCR); format: cell-based, mouse; conditions: LPS 1 μg/ml, compound 1 μM
Excerpt: as §1

[12] = test system: Nurr1-LBD and full-length Nurr1; assay: Luciferase activity assay (Nurr1 transactivation) in MN9D cells; format: cell-based, murine
[13] = test system: mouse embryonic ventral mesencephalic (mVM) primary neurons; assay: Dopaminergic gene expression in mVM primary neurons with or without 6-OHDA; format: cell-based; conditions: for DAergic gene expressions downregulated by 6-OHDA toxicity: 6-OHDA 20 μM; for DAergic gene expressions downregulated by 6-OHDA toxicity / mRNA expression levels of DAergic genes (TH, DAT, AADC, VMAT2, c-Ret, Pitx3): CQ 20 μM, SPV-94 0.5 μM; for mRNA expression levels of DAergic genes (TH, DAT, AADC, VMAT2, c-Ret, Pitx3): vs vehicle; for effects on DAergic gene expression in Nurr1 knockdown condition: Nurr1 KD
Procedure: FIGS. 8A-8D show dopaminergic (DAergic) gene expressions in the absence or presence of 6-OHDA (20 μM) in mouse embryonic ventral mesencephalic (mVM) primary neurons derived from embryonic day 12.5 (E12.5).

[14] = Brain permeability (plasma and brain levels by LC-MS/MS) after i.v. injection; format: in vivo; conditions: rats, 5 mg/kg i.v., 5 min and 1 hr
Procedure: Rats (n=6) were killed at 5 min and 1 hr after i.v. administration, and brain and plasma were collected for blood-brain barrier (BBB) penetration analysis. The concentrations of each compound in plasma (A) and brain (B) were determined by LC-MS/MS (liquid chromatography-tandem mass spectrometry). The brain/plasma ratio (B/P ratio) (C) is calculated at each time point.

[15] = target: T3, Nurr1 (Homo sapiens, UniProt P43354); assay: Relative luciferase activity versus previously reported compounds in SK-N-BE(2)C cells; format: cell-based; conditions: compared with control, AQ, CQ, SM-485, ATH-393, SR-175
T3 construct: expressed in transfected cells; host or cells: SK-N-BE(2)C cells
T3 sequence (P43354 whole entry): as the sequence (P43354 whole entry) above
Excerpt: Each bar indicates Mean±SEM from three independent experiments.

[16] = test system: MPTP-induced PD model mice; conditions: mouse, in vivo
Procedure: as §4

[17] = test system: MN9D cells
Procedure: as §2, §3

[18] = pH 7.4

CCN(CC)CCCC(C)Nc1ccnc2cc(Cl)ccc12 (stereo not drawn) [CQ, chloroquine]
cytotoxicity, LDH release assay ([1]; 500 μM MPP+): reduced cytotoxicity | protective effect against MPP+-induced toxicity under Nurr1 overexpression (OE) [1]: potentiated protective effects | body weight recovery [2]: regained body weight after day 8 | cylinder test, rearing numbers, sub-chronic treatment [2]: recovered rearing numbers in the cylinder test | pole test, time to traverse, sub-chronic treatment [2]: reduced time to traverse on a pole | rotarod latency to fall, sub-chronic treatment [2]: significantly improved motor deficits on the rotarod latency to fall | TH+ DAergic neurons (counting and densitometry) ([2]; STR): significantly restored DAergic neurons | dyskinesia in the abnormal involuntary movements (AIMs) test ([2]; chronic administration): did not trigger dyskinesia | olfactory discrimination test (olfaction), chronic treatment [2]: significantly recovered olfaction | rotarod latency to fall, chronic treatment [2]: improved latency to fall on the rotarod on day 15 | LPS- or poly(I:C)-induced pro-inflammatory gene expressions (TNFα, iNOS, IL-1β, IL-6) [3]: significantly suppressed LPS- or poly(I:C)-induced pro-inflammatory gene expressions | transcriptional activities of Nurr1-LBD and full-length Nurr1 [4]: enhanced transcriptional activities | EC50 ([5]; SK-N-BE(2)C cells): 50 µM | autophagy process (LC3B, p62) [6]: induced autophagy initiation but inhibited autophagy process termination | basal Nurr1 expression level compared to VEH ([7]; CQ 20 μM, SPV-94 1 μM): significantly higher | EC50 ([8]; SK-N-BE(2)C cells): 50 µM | Ki [9]: 0.0284 µM | IC50 [9]: 1 µM | cytotoxicity, LDH assay [10]: reduced cytotoxicity in LDH assay | suppression of TNFα expression compared to LPS only [11]: 35.53% | transcriptional activities of Nurr1-LBD and full-length Nurr1 [12]: enhanced transcriptional activities | DAergic gene expressions downregulated by 6-OHDA toxicity [13]: significant recovery of downregulated DAergic gene expressions | mRNA expression levels of DAergic genes (TH, DAT, AADC, VMAT2, c-Ret, Pitx3) [13]: significantly upregulated mRNA expression levels of DAergic genes | effects on DAergic gene expression in Nurr1 knockdown condition [13]: disappeared

CCN1CCN(c2cc(NCCNc3ccnc4cc(Cl)ccc34)nc(N3CCN(CC)CC3)n2)CC1 [SPV-94]
cell viability, MTT reduction assay ([1]; 500 μM MPP+): dose-dependently increased cell viability | protective effect against MPP+-induced toxicity under Nurr1 overexpression (OE) [1]: potentiated protective effects | penetration into the brain (brain and plasma concentration, B/P ratio) [14]: penetrated into the brain slower than CQ and consistently maintained its level | olfactory discrimination test (olfaction), sub-acute stage [2]: significantly recovered olfaction | body weight recovery [2]: restored it even earlier, after day 6 | cylinder test, rearing numbers, sub-chronic treatment [2]: recovered rearing numbers in the cylinder test | pole test, time to traverse, sub-chronic treatment [2]: reduced time to traverse on a pole | rotarod latency to fall, sub-chronic treatment [2]: significantly improved motor deficits on the rotarod latency to fall | Nurr1-immunoreactive cells ([2]; SNpc): significantly retained Nurr1-immunoreactive cells | GFAP immunoreactivity, activated astrocytes ([2]; STR): reduced number of activated astrocytes | Iba-1+ microglia numbers ([2]; STR and SNpc): significantly reduced numbers of Iba-1+ microglia | TH+ DAergic neurons (counting and densitometry) ([2]; STR): significantly restored DAergic neurons | olfactory discrimination test (olfaction), chronic treatment [2]: significantly recovered olfaction | rotarod latency to fall, chronic treatment [2]: improved latency to fall on the rotarod on day 15 | relative luciferase activity (transactivity) among selected candidates [15]: markedly highest transactivity among the selected candidates | dyskinesia in the abnormal involuntary movements (AIMs) test [16]: did not trigger dyskinesia | LPS- or poly(I:C)-induced pro-inflammatory gene expressions (TNFα, iNOS, IL-1β, IL-6) [3]: dramatically suppressed all four pro-inflammatory gene expressions | EC50 [4]: ~0.05 µM | transcriptional activities of Nurr1-LBD and full-length Nurr1 [4]: enhanced transcriptional activities | concentration of maximal efficiency, full-length Nurr1 transcriptional activity ([5]; SK-N-BE(2)C cells): 20 µM | EC50 ([5]; SK-N-BE(2)C cells): ~10 µM and 10 µM | fold lower concentration of maximal efficiency than CQ, full-length Nurr1 ([5]; versus CQ): 5 fold | times lower concentration of maximal efficiency than CQ, protection from MPP+-induced cytotoxicity [17]: 10 times | autophagy process (LC3B, p62) [6]: initiated and also terminated autophagy process resulting in significant p62 degradation | basal Nurr1 expression level compared to VEH ([7]; CQ 20 μM, SPV-94 1 μM): significantly higher | MPP+-induced autophagy dysregulation (p62 degradation) ([7]; MPP+ 1 mM): seemed to protect N27-A cells from MPP+-induced autophagy dysregulation leading to successful p62 degradation | Nurr1 expression against MPP+ ([7]; MPP+ 1 mM, SPV-94 1 μM): maintained Nurr1 expression against MPP+ | autophagy termination (LC3B, p62) ([7]; starvation 0-4 hrs, BafA1 10 nM, CQ 20 μM, SPV-94 1 μM): autophagy was successfully terminated | solubility [18]: 504.88 µM (≈ 265 µg/mL) | concentration of maximal efficiency, Nurr1-LBD transcriptional activity ([8]; SK-N-BE(2)C cells): 20 µM | EC50 ([8]; SK-N-BE(2)C cells): ~10 µM and 10 µM | fold lower concentration of maximal efficiency than CQ, Nurr1-LBD ([8]; versus CQ): 5 fold | Ki [9]: 0.0111 µM | IC50 [9]: 0.05 µM | times higher affinity to Nurr1-LBD than CQ, based on IC50s ([9]; versus CQ): 20 times | cell viability, MTT assay [10]: dose-dependently increased cell viability in MTT assay | suppression of TNFα expression compared to LPS only [11]: 20.67% | EC50 [12]: ~0.05 µM | transcriptional activities of Nurr1-LBD and full-length Nurr1 [12]: enhanced transcriptional activities | DAergic gene expressions downregulated by 6-OHDA toxicity [13]: significant recovery of downregulated DAergic gene expressions | mRNA expression levels of DAergic genes (TH, DAT, AADC, VMAT2, c-Ret, Pitx3) [13]: significantly upregulated mRNA expression levels of DAergic genes | effects on DAergic gene expression in Nurr1 knockdown condition [13]: disappeared

Source: patent US20230312510A1, “COMPOUNDS AND METHODS FOR TREATING NEURODEGENERATIVE DISEASES” (The McLean Hospital Corporation, priority 2020, published 2023)
